Laboratory results taken from ChEMBL document CHEMBL4507298 (2021).

Columns and labels:
[1] = molecular target: Activin receptor type-1-like (Homo sapiens) (UniProt P37023); details: Compound concentration 1000.0 nM
[2] = molecular target: Serine/threonine-protein kinase PLK4 (Homo sapiens) (UniProt O00444); details: Compound concentration 1000.0 nM
[3] = molecular target: Mitogen-activated protein kinase 15 (Homo sapiens) (UniProt Q8TD08); details: Compound concentration 1000.0 nM
[4] = molecular target: Calcium/calmodulin-dependent protein kinase type II subunit alpha (Homo sapiens) (UniProt Q9UQM7); assay: CaMK2alpha (h) CEREP ligand profiling; details: Compound concentration 10.0 uM
Calcium/calmodulin-dependent protein kinase type II subunit alpha (Homo sapiens), sequence (Q9UQM7 whole entry): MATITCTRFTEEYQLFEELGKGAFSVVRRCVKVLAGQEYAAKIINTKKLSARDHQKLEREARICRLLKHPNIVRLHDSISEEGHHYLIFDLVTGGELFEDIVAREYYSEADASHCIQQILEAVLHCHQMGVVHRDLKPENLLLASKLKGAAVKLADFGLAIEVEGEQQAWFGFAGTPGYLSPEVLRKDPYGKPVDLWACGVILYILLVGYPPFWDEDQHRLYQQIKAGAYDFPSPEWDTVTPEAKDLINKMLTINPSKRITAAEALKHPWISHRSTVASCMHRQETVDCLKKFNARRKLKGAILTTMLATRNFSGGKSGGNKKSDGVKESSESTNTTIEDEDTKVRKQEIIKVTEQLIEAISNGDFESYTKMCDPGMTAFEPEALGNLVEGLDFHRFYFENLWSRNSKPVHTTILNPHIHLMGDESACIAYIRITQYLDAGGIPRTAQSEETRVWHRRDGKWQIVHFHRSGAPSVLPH

[5] = molecular target: Serine/threonine-protein kinase ULK3 (Homo sapiens) (UniProt Q6PHR2); details: Compound concentration 1000.0 nM
Serine/threonine-protein kinase ULK3 (Homo sapiens), sequence (Q6PHR2 whole entry): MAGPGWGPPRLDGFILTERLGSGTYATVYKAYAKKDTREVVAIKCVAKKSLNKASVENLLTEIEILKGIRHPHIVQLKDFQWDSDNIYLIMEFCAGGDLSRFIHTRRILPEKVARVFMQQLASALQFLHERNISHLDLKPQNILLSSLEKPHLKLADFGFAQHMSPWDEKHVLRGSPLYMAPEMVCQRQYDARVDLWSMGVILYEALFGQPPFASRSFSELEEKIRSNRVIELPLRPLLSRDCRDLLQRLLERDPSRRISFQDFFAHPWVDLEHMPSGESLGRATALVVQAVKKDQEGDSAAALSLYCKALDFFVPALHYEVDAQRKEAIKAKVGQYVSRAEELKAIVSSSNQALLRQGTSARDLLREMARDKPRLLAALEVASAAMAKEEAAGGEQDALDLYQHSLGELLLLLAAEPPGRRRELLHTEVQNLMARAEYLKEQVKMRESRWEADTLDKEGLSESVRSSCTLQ

[6] = molecular target: Bone morphogenetic protein receptor type-1A (Homo sapiens) (UniProt P36894); details: Compound concentration 1000.0 nM
[7] = molecular target: Aurora kinase C (Homo sapiens) (UniProt Q9UQB9); details: Compound concentration 1000.0 nM
[8] = molecular target: Phosphatidylinositol 5-phosphate 4-kinase type-2 beta (Homo sapiens) (UniProt P78356); details: Compound concentration 1000.0 nM
[9] = molecular target: Voltage-gated L-type calcium channel (diltiazem site) (Homo sapiens, UniProt O60840+Q01668+Q13698+Q13936); assay: Ca2+ channel (L, diltiazem site) CEREP ligand profiling; type: protein assay; details: compound concentration 10 uM
[10] = molecular target: Serine/threonine-protein kinase DCLK3 (Homo sapiens) (UniProt Q9C098); details: Compound concentration 1000.0 nM
D(1A) dopamine receptor = D(1A) dopamine receptor (Homo sapiens, UniProt P21728); assay: D1 (h) CEREP ligand profiling; details: Compound concentration 10.0 uM
[11] = molecular target: Voltage-dependent N-type calcium channel subunit alpha-1B (Homo sapiens) (UniProt Q00975); assay: Ca2+ channel (N) CEREP ligand profiling; details: Compound concentration 10.0 uM
[12] = molecular target: Mitogen-activated protein kinase 6 (Homo sapiens) (UniProt Q16659); details: Compound concentration 1000.0 nM
Mitogen-activated protein kinase 6 (Homo sapiens), sequence (Q16659 whole entry): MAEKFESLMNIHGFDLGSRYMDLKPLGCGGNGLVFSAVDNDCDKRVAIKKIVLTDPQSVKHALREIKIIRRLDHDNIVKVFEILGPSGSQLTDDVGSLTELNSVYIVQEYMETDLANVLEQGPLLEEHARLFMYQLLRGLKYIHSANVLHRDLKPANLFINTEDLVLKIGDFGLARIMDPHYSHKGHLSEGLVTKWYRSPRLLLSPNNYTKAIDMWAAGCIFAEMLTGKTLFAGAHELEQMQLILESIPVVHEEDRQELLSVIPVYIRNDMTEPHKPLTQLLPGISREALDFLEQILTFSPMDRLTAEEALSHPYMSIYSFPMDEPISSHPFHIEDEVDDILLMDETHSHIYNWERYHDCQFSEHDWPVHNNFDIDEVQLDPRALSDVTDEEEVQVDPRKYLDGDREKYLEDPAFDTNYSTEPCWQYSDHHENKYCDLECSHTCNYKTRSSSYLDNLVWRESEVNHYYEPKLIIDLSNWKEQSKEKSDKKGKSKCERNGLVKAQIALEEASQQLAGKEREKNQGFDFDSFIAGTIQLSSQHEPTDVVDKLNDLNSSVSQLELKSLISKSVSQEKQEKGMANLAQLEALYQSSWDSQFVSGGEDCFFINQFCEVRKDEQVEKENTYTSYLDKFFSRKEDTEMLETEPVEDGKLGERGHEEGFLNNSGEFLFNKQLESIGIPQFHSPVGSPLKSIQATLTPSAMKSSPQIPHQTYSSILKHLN

[13] = molecular target: Serine/threonine-protein kinase WNK2 (Homo sapiens) (UniProt Q9Y3S1); details: Compound concentration 1000.0 nM
[14] = molecular target: Motilin receptor (Homo sapiens) (UniProt O43193); assay: Motilin (h) CEREP ligand profiling; details: Compound concentration 10.0 uM
[15] = molecular target: Substance-P receptor (Homo sapiens) (UniProt P25103); assay: NK1 (h) CEREP ligand profiling; details: Compound concentration 10.0 uM
Substance-P receptor (Homo sapiens), sequence (P25103 whole entry): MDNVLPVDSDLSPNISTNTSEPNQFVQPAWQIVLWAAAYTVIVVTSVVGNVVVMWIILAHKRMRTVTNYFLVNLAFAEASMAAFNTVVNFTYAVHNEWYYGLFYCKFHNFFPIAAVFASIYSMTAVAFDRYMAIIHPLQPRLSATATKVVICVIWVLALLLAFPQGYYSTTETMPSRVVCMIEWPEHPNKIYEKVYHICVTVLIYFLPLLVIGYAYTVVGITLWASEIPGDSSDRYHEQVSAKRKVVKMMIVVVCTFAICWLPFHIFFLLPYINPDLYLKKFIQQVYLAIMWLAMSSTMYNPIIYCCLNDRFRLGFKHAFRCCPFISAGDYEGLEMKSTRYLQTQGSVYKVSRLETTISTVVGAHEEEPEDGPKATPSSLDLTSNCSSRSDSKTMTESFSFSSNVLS

[16] = molecular target: Gastrin/cholecystokinin type B receptor (Homo sapiens) (UniProt P32239); assay: CCKB (h) (CCK2) CEREP ligand profiling; details: Compound concentration 10.0 uM
[17] = molecular target: Dual specificity mitogen-activated protein kinase kinase 7 (Homo sapiens) (UniProt O14733); details: Compound concentration 1000.0 nM
Dual specificity mitogen-activated protein kinase kinase 7 (Homo sapiens), sequence (O14733 whole entry): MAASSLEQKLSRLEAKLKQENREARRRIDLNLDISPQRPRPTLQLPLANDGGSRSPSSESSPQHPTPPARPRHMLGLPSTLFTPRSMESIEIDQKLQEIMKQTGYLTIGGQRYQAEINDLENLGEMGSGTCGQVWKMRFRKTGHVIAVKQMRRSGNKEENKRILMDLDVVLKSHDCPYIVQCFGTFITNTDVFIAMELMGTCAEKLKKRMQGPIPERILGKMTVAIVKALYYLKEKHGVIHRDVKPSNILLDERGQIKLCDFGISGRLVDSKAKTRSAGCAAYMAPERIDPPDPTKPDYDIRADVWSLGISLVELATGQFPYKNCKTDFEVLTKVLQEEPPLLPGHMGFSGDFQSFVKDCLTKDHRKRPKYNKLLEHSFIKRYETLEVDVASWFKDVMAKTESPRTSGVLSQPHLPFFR

[18] = test system: Mast/stem cell growth factor receptor Kit (Homo sapiens), P10721 [D816H]; details: Compound concentration 1000.0 nM
Mast/stem cell growth factor receptor Kit (Homo sapiens), P10721 [D816H], sequence (P10721 whole entry D816H): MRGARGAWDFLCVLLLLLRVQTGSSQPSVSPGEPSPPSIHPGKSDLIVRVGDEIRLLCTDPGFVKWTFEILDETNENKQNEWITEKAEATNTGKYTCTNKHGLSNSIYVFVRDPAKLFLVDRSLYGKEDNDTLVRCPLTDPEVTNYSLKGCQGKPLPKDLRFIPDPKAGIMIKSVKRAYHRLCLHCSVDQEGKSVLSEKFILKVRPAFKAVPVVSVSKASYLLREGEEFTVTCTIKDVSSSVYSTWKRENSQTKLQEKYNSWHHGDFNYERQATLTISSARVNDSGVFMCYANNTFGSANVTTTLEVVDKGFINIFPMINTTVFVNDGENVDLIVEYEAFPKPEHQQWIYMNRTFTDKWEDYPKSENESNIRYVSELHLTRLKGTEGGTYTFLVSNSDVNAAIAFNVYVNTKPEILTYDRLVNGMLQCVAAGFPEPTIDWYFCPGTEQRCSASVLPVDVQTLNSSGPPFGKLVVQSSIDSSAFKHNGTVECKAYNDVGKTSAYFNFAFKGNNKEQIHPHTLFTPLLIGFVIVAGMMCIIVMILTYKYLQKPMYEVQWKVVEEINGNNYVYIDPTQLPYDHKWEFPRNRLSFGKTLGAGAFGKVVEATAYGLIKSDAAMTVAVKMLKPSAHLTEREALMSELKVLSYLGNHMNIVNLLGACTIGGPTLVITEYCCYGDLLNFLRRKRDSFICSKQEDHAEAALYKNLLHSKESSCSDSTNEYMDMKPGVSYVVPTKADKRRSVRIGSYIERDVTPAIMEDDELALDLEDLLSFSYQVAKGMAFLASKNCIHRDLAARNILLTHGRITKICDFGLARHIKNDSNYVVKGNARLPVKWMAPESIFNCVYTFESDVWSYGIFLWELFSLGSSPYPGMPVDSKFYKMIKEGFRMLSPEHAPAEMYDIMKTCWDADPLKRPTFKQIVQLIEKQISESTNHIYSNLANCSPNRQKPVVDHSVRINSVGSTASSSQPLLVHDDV

[19] = molecular target: Mu-type opioid receptor (Homo sapiens) (UniProt P35372); assay: mu (h) (MOP) (agonist site) CEREP ligand profiling; details: Compound concentration 10.0 uM
[20] = molecular target: Tyrosine-protein kinase JAK1 (Homo sapiens) (UniProt P23458); details: Compound concentration 1000.0 nM
[21] = molecular target: Tyrosine-protein kinase Blk (Homo sapiens) (UniProt P51451); details: Compound concentration 1000.0 nM
Tyrosine-protein kinase Blk (Homo sapiens), sequence (P51451 2-505 limits assumed): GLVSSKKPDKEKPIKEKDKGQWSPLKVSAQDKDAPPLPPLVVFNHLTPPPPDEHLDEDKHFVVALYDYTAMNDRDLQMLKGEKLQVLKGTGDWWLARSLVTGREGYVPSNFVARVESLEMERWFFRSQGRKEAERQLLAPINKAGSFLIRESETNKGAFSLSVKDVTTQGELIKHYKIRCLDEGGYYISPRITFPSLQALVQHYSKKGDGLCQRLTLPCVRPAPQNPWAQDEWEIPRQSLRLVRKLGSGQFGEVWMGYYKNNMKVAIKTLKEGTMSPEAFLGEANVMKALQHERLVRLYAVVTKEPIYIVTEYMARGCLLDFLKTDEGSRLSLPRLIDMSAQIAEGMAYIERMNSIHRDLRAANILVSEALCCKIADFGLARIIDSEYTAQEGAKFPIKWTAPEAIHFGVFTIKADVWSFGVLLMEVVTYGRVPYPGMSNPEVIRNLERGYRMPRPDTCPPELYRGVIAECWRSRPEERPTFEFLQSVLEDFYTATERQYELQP

[22] = molecular target: Dual specificity mitogen-activated protein kinase kinase 3 (Homo sapiens) (UniProt P46734); details: Compound concentration 1000.0 nM
[23] = molecular target: Sodium/potassium-transporting ATPase (Homo sapiens) (UniProt P05023+P14415+P05026+P50993+P54709+P13637+Q13733+P54710); assay: ATPase (Na+/K+) CEREP ligand profiling; type: protein-complex assay; details: Compound concentration 10.0 uM
[24] = molecular target: D(2) dopamine receptor (Homo sapiens) (UniProt P14416); assay: D2S (h) (agonist site) CEREP ligand profiling; details: Compound concentration 10.0 uM
D(2) dopamine receptor (Homo sapiens), sequence (P14416 whole entry, canonical isoform): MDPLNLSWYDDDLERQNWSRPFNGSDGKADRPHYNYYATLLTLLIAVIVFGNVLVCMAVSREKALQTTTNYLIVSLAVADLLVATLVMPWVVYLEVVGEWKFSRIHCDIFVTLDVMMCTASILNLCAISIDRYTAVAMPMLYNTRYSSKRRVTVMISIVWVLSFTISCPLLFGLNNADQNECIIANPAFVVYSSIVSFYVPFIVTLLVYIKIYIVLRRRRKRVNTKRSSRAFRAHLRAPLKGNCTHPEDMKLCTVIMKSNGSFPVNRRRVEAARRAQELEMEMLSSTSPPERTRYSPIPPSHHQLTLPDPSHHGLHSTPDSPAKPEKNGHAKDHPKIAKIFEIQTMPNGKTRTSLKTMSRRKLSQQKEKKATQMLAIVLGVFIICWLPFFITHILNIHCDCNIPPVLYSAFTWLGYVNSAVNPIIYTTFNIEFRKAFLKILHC

[25] = molecular target: Casein kinase I isoform epsilon (Homo sapiens) (UniProt P49674); details: Compound concentration 1000.0 nM
[26] = molecular target: Cyclin-dependent kinase-like 2 (Homo sapiens) (UniProt Q92772); details: Compound concentration 1000.0 nM
[27] = molecular target: Serine/threonine-protein kinase MARK2 (Homo sapiens) (UniProt Q7KZI7); details: Compound concentration 1000.0 nM
[28] = molecular target: T1, 5-hydroxytryptamine receptor 3A (Homo sapiens) (UniProt P46098); assay: 5-HT3 (h) CEREP ligand profiling; details: Compound concentration 10.0 uM
T1 sequence (whole entry): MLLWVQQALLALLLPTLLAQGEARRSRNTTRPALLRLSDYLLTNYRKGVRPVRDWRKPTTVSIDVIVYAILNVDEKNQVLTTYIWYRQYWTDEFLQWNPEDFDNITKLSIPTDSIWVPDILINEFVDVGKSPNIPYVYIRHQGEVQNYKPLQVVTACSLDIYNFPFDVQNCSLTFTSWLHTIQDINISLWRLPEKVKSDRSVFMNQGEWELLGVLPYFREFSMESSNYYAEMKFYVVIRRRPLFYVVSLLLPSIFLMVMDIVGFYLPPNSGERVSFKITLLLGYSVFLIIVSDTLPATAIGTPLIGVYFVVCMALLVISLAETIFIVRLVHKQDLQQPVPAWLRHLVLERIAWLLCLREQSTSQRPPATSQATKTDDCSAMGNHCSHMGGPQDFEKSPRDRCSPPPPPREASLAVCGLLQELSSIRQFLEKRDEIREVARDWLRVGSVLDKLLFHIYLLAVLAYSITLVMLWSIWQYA

[29] = molecular target: Glycogen synthase kinase-3 alpha (Homo sapiens) (UniProt P49840); details: Compound concentration 1000.0 nM
[30] = molecular target: Tyrosine-protein kinase Lck (Homo sapiens) (UniProt P06239); details: Compound concentration 1000.0 nM
Tyrosine-protein kinase Lck (Homo sapiens), sequence (P06239 2-509 limits assumed): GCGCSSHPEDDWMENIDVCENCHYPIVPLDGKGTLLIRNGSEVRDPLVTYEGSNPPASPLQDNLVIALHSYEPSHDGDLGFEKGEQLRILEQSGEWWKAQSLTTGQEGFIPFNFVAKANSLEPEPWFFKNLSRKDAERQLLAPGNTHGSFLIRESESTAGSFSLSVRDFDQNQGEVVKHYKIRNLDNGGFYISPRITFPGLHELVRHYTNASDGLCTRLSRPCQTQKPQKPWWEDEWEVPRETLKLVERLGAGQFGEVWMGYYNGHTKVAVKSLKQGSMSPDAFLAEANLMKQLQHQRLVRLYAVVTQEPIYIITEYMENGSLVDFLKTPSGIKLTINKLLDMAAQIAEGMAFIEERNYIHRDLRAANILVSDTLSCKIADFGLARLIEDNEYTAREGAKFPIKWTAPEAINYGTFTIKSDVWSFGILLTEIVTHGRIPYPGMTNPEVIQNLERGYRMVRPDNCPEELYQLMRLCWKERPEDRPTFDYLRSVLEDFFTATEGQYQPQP

[31] = molecular target: Vascular endothelial growth factor receptor 1 (Homo sapiens) (UniProt P17948); assay: FLT-1 kinase (h) (VEGFR1) CEREP ligand profiling; details: Compound concentration 10.0 uM
[32] = molecular target: Tyrosine-protein kinase ABL1 (Homo sapiens) (UniProt P00519); details: Compound concentration 1000.0 nM
[33] = molecular target: Phosphodiesterase 4 (Homo sapiens) (UniProt P27815+Q08499+Q07343+Q08493); assay: PDE4 (h) CEREP ligand profiling; type: protein assay; details: Compound concentration 10.0 uM
[34] = molecular target: Voltage-gated L-type calcium channel (verapamil site) (Homo sapiens, UniProt O60840+Q01668+Q13698+Q13936); assay: Ca2+ channel (L, verapamil site) CEREP ligand profiling; type: protein assay; details: compound concentration 10 uM
[35] = molecular target: Peroxisome proliferator-activated receptor gamma (Homo sapiens) (UniProt P37231); assay: PPAR gamma (h) CEREP ligand profiling; details: Compound concentration 10.0 uM
[36] = molecular target: Serine/threonine-protein kinase BRSK1 (Homo sapiens) (UniProt Q8TDC3); details: Compound concentration 1000.0 nM

With `COc1ccc2cc(OCC3(C(=O)O)CN(C(=O)c4ccc(F)cc4)C3)ccc2c1` [PF-04418948] as the compound, how does the residual activity [1] read?
The residual activity was 93%.

What about the residual activity [2] of the same compound?
Its residual activity is 82%.

What about the residual activity [3] of the same compound?
Its residual activity is 74%.

And the inhibition [4]?
The inhibition was 5%.

And the residual activity [5]?
The residual activity was 86%.

And the residual activity [6]?
The residual activity was 88%.

What about the residual activity [7] of the same compound?
Its residual activity is 98%.

And the residual activity [8]?
The residual activity was 74%.

And the inhibition at 10 µM [9]?
The inhibition at 10 µM was 6% (not active).

What about the residual activity [10] of the same compound?
Its residual activity is 98%.

And the inhibition (D(1A) dopamine receptor)?
Its inhibition is 5%.

And the inhibition [11]?
Its inhibition is -7%.

What about the residual activity [12] of the same compound?
The residual activity was 88%.

And the residual activity [13]?
Its residual activity is 84%.

And the inhibition [14]?
The inhibition was -5%.

And the inhibition [15]?
The inhibition was 3%.

What about the inhibition [16] of the same compound?
Its inhibition is -8%.

And the residual activity [17]?
The residual activity was 79%.

What about the residual activity [18] of the same compound?
The residual activity was 82%.

And the inhibition [19]?
Its inhibition is -7%.

What about the residual activity [20] of the same compound?
Its residual activity is 96%.

What about the residual activity [21] of the same compound?
Its residual activity is 93%.

And the residual activity [22]?
The residual activity was 95%.

And the inhibition [23]?
The inhibition was 5%.

What about the inhibition [24] of the same compound?
Its inhibition is -6%.

And the residual activity [25]?
The residual activity was 94%.

What about the residual activity [26] of the same compound?
Its residual activity is 89%.

What about the residual activity [27] of the same compound?
The residual activity was 91%.

And the inhibition [28]?
Its inhibition is -6%.

And the residual activity [29]?
The residual activity was 96%.

And the residual activity [30]?
Its residual activity is 80%.

What about the inhibition [31] of the same compound?
The inhibition was 9%.

And the residual activity [32]?
Its residual activity is 78%.

What about the inhibition [33] of the same compound?
Its inhibition is 8%.

What about the inhibition at 10 µM [34] of the same compound?
The inhibition at 10 µM was -5% (not active).

And the inhibition [35]?
The inhibition was 14%.

And the residual activity [36]?
The residual activity was 85%.
